The values below come from patent US6924311B2, “Methods for affecting various diseases utilizing LXR compounds” (X-Ceptor Therapeutics, Inc., priority 2001, dated 2005).

Molecules are shown by their SMILES.

The subject of series [1] is CYP7a mRNA. Put plainly: Liver CYP7a mRNA by quantitative PCR in treated mice. In kind it is in vivo. Conditions: for CYP7a mRNA induction: daily oral 7 days. The text has this:
The CYP7a gene encodes cholesterol 7α-hydroxylase, the rate-limiting enzyme in the catabolic conversion of cholesterol to bile acids. Increases in CYP7a activity stimulate the conversion of cholesterol to bile acids and may reduce plasma cholesterol levels by depleting hepatocytes of cholesterol. Intracellular cholesterol depletion should stimulate the uptake of LDL particles from the plasma by liver hepatocytes. To determine the contribution of LXRα and LXRβ to the induction of CYP7a by LXR agonists, Compound 1 was administered for seven days by daily oral gavage in a sesame oil/ethanol vehicle via a 1-cc syringe fitted with a 20G disposable feeding needle. Compound was solvated in ethanol (5% final volume) and brought up to final volume with sesame oil (Sigma, St. Louis, Mo.). Three hours after the final dose (day 7) animals were sacrificed, livers were harvested, and total liver RNA was isolated using RNeasy kits (QIAGEN Inc.) according to the supplier's total RNA isolation procedure. The RNA samples were further treated with deoxyribonuclease 1 to eliminate contaminating genomic DNA. CYP7a mRNA levels were than analyzed by real-time based quantitative PCR using Perkin Elmer ABI Prism 7700 and Sequence Detection System software (Perkin Elmer). […] As expected no induction is observed in LXRαβ−/− mice.

Series [2] deals with ABCA1 mRNA. Put plainly: Intestinal mucosa ABCA1 mRNA by quantitative PCR in treated mice. In kind it is in vivo. The following applies: daily oral 7 days. Here is the method: The LXR pan-agonist-dependent inhibition of cholesterol absorption is believed to result from the ability of LXRs to induce the expression of ATP binding cassette transporters such as ABCA1 in the intestine. To examine the contributions of LXRα and LXRβ to intestinal gene expression and dietary cholesterol absorption, Compound 1 was administered to wildtype, LXRα−/−, LXRβ−/− and LXRαβ−/− mice for seven days by daily oral gavage in a sesame oil/ethanol vehicle via a 1 cc syringe fitted with a 20G disposable feeding needle. Compound was solvated in ethanol (5% final volume) and brought up to final volume with sesame oil (Sigma, St. Louis, Mo.). Three hours after the final dose (day 7) animals were sacrificed, intestines were harvested, and intestinal enterocytes were isolated by gently scraping the mucosa layer away from the rest of the tissue. Total intestinal mucosa RNA was isolated using RNeasy kits (QIAGEN Inc.) according to the supplier's total RNA isolation procedure. The RNA samples were further treated with deoxyribonuclease I to eliminate contaminating genomic DNA. ABCA1 mRNA levels were than analyzed by real-time based quantitative PCR using Perkin Elmer ABI Prism 7700 and Sequence Detection System software (Perkin Elmer). […] No induction is observed in LXRαβ−/− mice. Thus either LXRα or LXRβ alone is sufficient to induce ABCA1 in the intestine and inhibit the absorption of dietary cholesterol.

The nature of series [3]: Dietary cholesterol absorption, fecal extraction method. It counts as in vivo, mice. The following applies: 50 mg/kg daily oral, 7 days. Here is the method:
Induction of cholesterol efflux pumps such as ABCA1 in the intestine limits the absorption of dietary cholesterol by stimulating the efflux of cholesterol out of intestinal enterocytes and into the intestinal lumen where it is excreted. To examine the effect of LXR pan-agonists on dietary cholesterol absorption, mixed wildtype and LXRαβ−/− mice were treated with vehicle or Compound 1 (50 mg/kg) for seven days prior to the initiation of the cholesterol absorption protocol. Compound 1 was administered by daily oral gavage in a 1% carboxy methyl-cellulose/ethanol vehicle via a 1-cc syringe fitted with a 20G disposable feeding needle. Compound was solvated in ethanol (5% final volume) and brought up to final volume with 1% carboxy methylcellulose. On day seven of the study, animals received a single oral bolus dose of 0.67 μCi [4-^14C]cholesterol (New England Nuclear, Boston, Mass.) and 1.3 μCi [5,6-^3H]sitostanol (ARC, St. Louis Mo.) by gavage in MCT oil (Mead Johnson, Evansville, Ind.). […] Extracted samples were counted on a scintillation counter and then analyzed based upon the following equation. [((^14C/^3H) dosing mixture)−(^14C/^3H) fecal samples)]/((^14C/^3H) dosing mixture). […] This agonist-dependent effect is lost in LXRαβ−/− mice indicating a requirement for LXR activity in mediating this activity.

Series [4] is described as follows: Plasma HDL cholesterol levels in wildtype and LXR knockout mice. The following applies: 10 mg/kg daily oral, day 7. In kind it is in vivo. Here is the method:
To determine the individual contribution of LXRα and LXRβ to increases in HDL cholesterol levels, Compound 1 (10 mg/kg) was administered for seven days by daily oral gavage in a sesame oil/ethanol vehicle via a 1 cc syringe fitted with a 20G disposable feeding needle. Compound was solvated in ethanol (5% final volume) and brought up to final volume with sesame oil (Sigma, St. Louis, Mo.). On day 7 mice were anesthetized with isofluorane and blood samples were obtained by retro-orbital plexus puncture. Blood samples were collected in heparinized tubes, centrifuged to obtain plasma and stored at -20° C. HDL levels were determined by precipitating non-HDL cholesterol from plasma samples using a precipitating reagent (Wako Diagnostic 278-67409, Richmond, Va.). The remaining HDL cholesterol was than quantitated using a colorimetric enzymatic assay adapted to a 96 well plate format (Infinity Total Cholesterol Reagent, Sigma, St. Louis, Mo.). […] (23%) strains and unchanged when LXRβ is eliminated. […] Thus either LXRα or LXRβ alone is competent to elevate HDL cholesterol in response to agonist treatment (FIG. 5). The lack of selectivity in HDL regulation contrasts the selective decrease in triglyceride levels observed only when LXRα is eliminated (LXRα-/-, LXRαβ-/-; FIGS. 1 and 2).

Consider `O=S(=O)(c1ccccc1)N(CC(F)(F)F)c1ccc(C(O)(C(F)(F)F)C(F)(F)F)cc1` [Compound 1, N-(2,2,2-trifluoroethyl)-N-[4-(2,2,2-trifluoro-1-hydroxy-1-trifluoromethylethyl)-phenyl]-benzene sulfonamide], for which the “CYP7a mRNA induction” value in series [1] (LXRαβ−/− mice) is recorded as “no induction”; in series [1] (LXRα−/− mice) it was “can induce transcription of the CYP7a gene”; in series [1] (LXRβ−/− mice), “can induce transcription of the CYP7a gene”; in series [1] (wildtype mice), “can induce transcription of the CYP7a gene”. Further, the “CYP7a induction level relative to wildtype agonist-treated mice” value in series [1] (LXRβ alone (LXRα−/− mice)) is 20%-50%. The “ABCA1 mRNA induction in the intestine” value in series [2] (LXRαβ−/− mice) is recorded as “No induction”. In addition, the “ABCA1 mRNA fold induction in the intestine” value is 7-14 fold in series [2] (LXRα−/− mice, depending on the strain); 9 fold in series [2] (LXRβ−/− mice); 14-29 fold in series [2] (wildtype mice, depending on the strain). In addition, the figures for the “effect on cholesterol absorption” value in series [3] (LXRαβ−/− mice) and in series [3] (mixed wildtype mice) were “lost” and “significant decrease in cholesterol absorption”, respectively. Also, the “agonist-dependent increase in HDL” value in series [4] (LXRαβ−/− mice) is “completely lost”; in series [4] (LXRβ−/− mice), “unchanged”. Further, the “reduction of agonist-dependent increase in HDL” value is listed as 23% in series [4] (LXRα−/− A129 mice versus wildtype) and 8% in series [4] (LXRα−/− C57BL/6 mice versus wildtype). The “effect on HDL levels” value in series [4] (wildtype mice) is listed as “significant increase in HDL levels”.
